Results: US9868758B2, “Betulinic proline imidazole derivatives as HIV inhibitors” (HETERO LABS LIMITED, priority 2014, dated 2018)

Assays:
[1] = test system: HIV-1 strains, for e.g., 92HT599; assay: Antiviral activity: p24 estimation in HIV-1 infected MT-2 cells; format: cell-based; conditions: Human immunodeficiency virus 1, MT2, MT-2 cells; for inhibition at 0.01 µM / inhibition at 0.1 µM / inhibition at 1 µM: p24, ~96 hours; for IC50: p24, read-out: Antiviral activity IC50
Method: MT-2 cells were infected with required number of TCID50's of HIV-1 strains, for e.g., 92HT599. The infected cells were plated at the concentration of 30,000 cells per well in a 96 well plate. Test compound was added to the 96 well plate with the final concentration of DMSO (vehicle—not more than 1%). The plates are then incubated in a CO2 incubator for ˜96 hours (˜4 days) for viral infection. At the end of incubation period an aliquot from each well was taken for p24 estimation. The quantitation of p24 is an estimated index for antiviral activity of the compound. Percent inhibition was calculated with reference to control values (vehicle controls).
p-24 estimation was carried out using Advance biosciences kit as per the procedure detailed by supplier.

Cyto-toxicity, MTT assay = format: cell-based; conditions: read-out: Cytotoxicity % viability
Method: On day 1 calculate the number of cells required for the assay and seed 3×10^4 cells in 200 μl per well. Weigh the compound and dissolve it in DMSO to get 10 mM stock which is further diluted to 3 mM and 1 mM. The drugs from these stocks were added to plate to get final concentration of 100 μM, 30 μM and 10 μM. […] Incubate for 4 days in 5% CO2 incubator at 37° C. On day 4, 100 μl of medium was removed from each well without disturbing the cells. Add 10 μl of MTT reagent and incubate for 4 hours at 5% CO2 incubator at 37° C. for formation of crystals. Add 200 μl of 0.1N acidic isopropanol to dissolve the crystals and read the plate at 590 nm.

[2] = Single dose oral pharmacokinetic study; parameters: species or system mice; conditions: mouse, in vivo, po, 30 mg/kg
Method: The test item was administered through oral route to animals (rat/mice) at 30 mg/kg dose in a suitable vehicle at 10 ml/kg dose volume. Blood samples (˜50 uL at each time point) were collected from retro-orbital plexus using K3 EDTA as anticoagulant in eppendorf tubes at defined time intervals under light ether anesthesia. The samples were centrifuged at 3500×g to separate plasma and stored at −80° C. until analysis.
Sample analysis: Test samples were analyzed using LC-MS-MS after developing fit-for-purpose method for each of test compound.

Row | SMILES | inhibition at 0.01 µM [1] | inhibition at 0.1 µM [1] | inhibition at 1 µM [1] | IC50 [1] | viability at 4 days, 0.01 µM (Cyto-toxicity, MTT assay) | viability at 4 days, 0.1 µM (Cyto-toxicity, MTT assay) | viability at 4 days, 1 µM (Cyto-toxicity, MTT assay) | AUC(0-t) [2] | Cmax [2] | viability at 4 days, 10 µM (Cyto-toxicity, MTT assay; 10 μM) | viability at 4 days, 30 µM (Cyto-toxicity, MTT assay; 30 μM) | viability at 4 days, 100 µM (Cyto-toxicity, MTT assay; 100 μM)
1 | C=C(C)[C@@H]1CC[C@]2(C(=O)N3C[C@H](OCCOC)C[C@H]3c3nc(-c4cccc(F)c4)cn3CCN3CCCC3)CC[C@]3(C)[C@H](CC[C@@H]4[C@@]5(C)CC[C@H](OC(=O)[C@H]6C[C@@H](C(=O)O)C6(C)C)C(C)(C)[C@@H]5CC[C@]43C)[C@@H]12 [Compound 28, (1R,3S)-3-((((1R,3aS,5aR,5bR,7aR,9S,11aR,11bR,13aR,13bR)-3a-((2S,4R)-2-(4-(3-fluorophenyl)-1-(2-(pyrrolidin-1-yl)ethyl)-1H-imidazol-2-yl)-4-(2-methoxyethoxy)pyrrolidine-1-carbonyl)-5a,5b,8,8,11a-pentamethyl-1-(prop-1-en-2-yl)icosahydro-1H-cyclopenta[a]chrysen-9-yl)oxy)carbonyl)-2,2-dimethylcyclobutane-1-carboxylic acid] | 13% | 98% | 100% | 39.6 nM | 65% | 19% | 6% | 293 µg·h/mL | 7300 ng/mL |  |  | 
2 | C=C(C)[C@@H]1CC[C@]2(C(=O)N3C[C@H](OCCOC)C[C@H]3c3nc(-c4ccccc4)cn3CCN3CCCC3)CC[C@]3(C)[C@H](CC[C@@H]4[C@@]5(C)CC[C@H](OC(=O)[C@H]6C[C@@H](C(=O)O)C6(C)C)C(C)(C)[C@@H]5CC[C@]43C)[C@@H]12 [Compound 27, (1R,3S)-3-((((1R,3aS,5aR,5bR,7aR,9S,11aR,11bR,13aR,13bR)-3a-((2S,4R)-4-(2-methoxyethoxy)-2-(4-phenyl-1-(2-(pyrrolidin-1-yl)ethyl)-1H-imidazol-2-yl)pyrrolidine-1-carbonyl)-5a,5b,8,8,11a-pentamethyl-1-(prop-1-en-2-yl)icosahydro-1H-cyclopenta[a]chrysen-9-yl)oxy)carbonyl)-2,2-dimethylcyclobutane-1-carboxylic acid] | 0% | 100% | 100% | 34 nM | 60% | 24% | 8% | 355 µg·h/mL | 10900 ng/mL |  |  | 
3 | C=C(C)[C@@H]1CC[C@]2(C(=O)N3CCC[C@H]3c3nc4ccccc4n3CCN(C)C)CC[C@]3(C)[C@H](CC[C@@H]4[C@@]5(C)CC[C@H](OC(=O)[C@H]6C[C@@H](C(=O)O)C6(C)C)C(C)(C)[C@@H]5CC[C@]43C)[C@@H]12 [Compound 29, (1R,3S)-3-((((1R,3aS,5aR,5bR,7aR,9S,11aR,11bR,13aR,13bR)-3a-((S)-2-(1-(2-(dimethylamino)ethyl)-1H-benzo[d]imidazol-2-yl)pyrrolidine-1-carbonyl)-5a,5b,8,8,11a-pentamethyl-1-(prop-1-en-2-yl)icosahydro-1H-cyclopenta[a]chrysen-9-yl)oxy)carbonyl)-2,2-dimethylcyclobutane-1-carboxylic acid] | 0% | 100% | 100% | 9.76 nM | 31% | 1% | 5% | 491 µg·h/mL | 14900 ng/mL |  |  | 
4 | C=C(C)[C@@H]1CC[C@]2(C(=O)N3CCC[C@H]3c3nc(-c4cccc(F)c4)cn3CCN(C)C)CC[C@]3(C)[C@H](CC[C@@H]4[C@@]5(C)CC[C@H](OC(=O)[C@H]6C[C@@H](C(=O)O)C6(C)C)C(C)(C)[C@@H]5CC[C@]43C)[C@@H]12 [Compound 12, (1R,3S)-3-((((1R,3aS,5aR,5bR,7aR,9S,11aR,11bR,13aR,13bR)-3a-((S)-2-(1-(2-(dimethylamino)ethyl)-4-(3-fluorophenyl)-1H-imidazol-2-yl)pyrrolidine-1-carbonyl)-5a,5b,8,8,11a-pentamethyl-1-(prop-1-en-2-yl)icosahydro-1H-cyclopenta[a]chrysen-9-yl)oxy)carbonyl)-2,2-dimethyl cyclobutane-1-carboxylic acid] | 24% | 44% | 99% |  |  |  |  |  |  | 42% | 31% | 5%
5 | C=C(C)[C@@H]1CC[C@]2(C(=O)N3CCC[C@H]3c3nc4ccccc4n3CCN3CCCC3)CC[C@]3(C)[C@H](CC[C@@H]4[C@@]5(C)CC[C@H](OC(=O)[C@H]6C[C@@H](C(=O)O)C6(C)C)C(C)(C)[C@@H]5CC[C@]43C)[C@@H]12 [Compound 30, (1R,3S)-2,2-dimethyl-3-((((1R,3aS,5aR,5bR,7aR,9S,11aR,11bR,13aR,13bR)-5a,5b,8,8,11a-pentamethyl-1-(prop-1-en-2-yl)-3a-((S)-2-(1-(2-(pyrrolidin-1-yl)ethyl)-1H-benzo[d]imidazol-2-yl)pyrrolidine-1-carbonyl)icosahydro-1H-cyclopenta[a]chrysen-9-yl)oxy)carbonyl)cyclobutane-1-carboxylic acid] | 71% | 100% | 100% | 10.2 nM | 33% | 3% | 5% | 546 µg·h/mL | 14800 ng/mL |  |  | 
